US10519504B2, “Methods for treatment of oncological disorders using epimetabolic shifters, multidimensional intracellular molecules, or environmental influencers” (Berg LLC, priority 2009, dated 2019)

What was measured:
Assay type in all cases: cell-based, human
[1] = test system: HASMC cells; assay: Diabetes PCR array
Protocol: (§1) The HK-2 and HASMC cells are normally maintained in culture at 5.5 mM glucose, which is a concentration that corresponds to a range considered normal in human blood. However, in order to simulate a diabetic environment, both cell lines were subsequently maintained at 22 mM glucose, which corresponds to the range observed in human blood associated with chronic hyperglycemia. The cells were subsequently allowed to propagate over 3 passages so that the intracellular regulation processes were functionally adapted to mimic a diabetic state. The choice of cell line was based on the physiologic influence of diabetes on renal dysfunction and progression to end-stage renal disease (ESRD) in addition to the progressive pathophysiology of a compromised cardiovascular function.
(§2) The Diabetes PCR array (SABiosciences) offers a screen for 84 genes simultaneously.
A stringent analysis of the Real time PCR data of the HASMC cell samples on the Diabetes Arrays (Cat #PAHS-023E, SABiosciences Frederick Md.) was made to exclude all results where gene regulation was not at least a two-fold regulation over HASMC normal untreated cells with a p value of less than 0.05.

[2] = test system: HK-2 cells; assay: Diabetes PCR array; conditions: HK2(H) cells, 22 mM glucose; particularly 100 μM
Protocol: as §1, §2
A stringent analysis of the Real time PCR data of the HK-2 samples on the Diabetes Arrays (Cat #PAHS-023E, SABiosciences Frederick Md.) was made to exclude all results where gene regulation was not at least a two-fold regulation over HK-2 normal untreated cells with a p value of less than 0.05.

[3] = test system: Pyruvate Kinase M2 (PKM2); assay: Western blot, Pyruvate Kinase M2 levels; conditions: cancer cells tested
Protocol: The samples were processed and run on a 4-12% Bis-Tris Novex NuPAGE gel as described above. The gels were run, transferred and stained essentially as described above.
The lactate dehydrogenase blots were stripped by incubating for 30 minutes with methanol, followed by two 10 minute washes with TBS-T, then 30 minutes of incubation with Stripping buffer at 50 deg C., and followed by two washes with 100 ml or more of TBS-T for 30′ each. The 2 blots were scanned in laser scanner to check for complete stripping. The blots were activated with methanol for 5 seconds, washed with water for 5 minutes, and TBST for 15 minutes. The blots were blocked for 1 hour with 5% blocking reagent in TBS-T at room temperature and then washed 3 times with TBS-T (1X−15′; 2X5′ each) and probed with the rabbit polyclonal antibody for Pyruvate Kinase M2 in 5% BSA (NOVUS BIOLOGICALS catalog #H00005315-D01P) at 1:500 dilution overnight at 4 deg C. with shaking. After the overnight incubation with primary antibody for Pyruvate Kinase M2, the membranes were washed 3 times with TBS-T (1X−15′; 2X5′ each) and probed with the secondary antibody (antirabbit; 1:10,000 dilution) for 1 h on the orbital tilting shaker at room temperature. […]

## COC1=C(OC)C(=O)C(C/C=C(\C)CC/C=C(\C)CC/C=C(\C)CC/C=C(\C)CC/C=C(\C)CC/C=C(\C)CC/C=C(\C)CC/C=C(\C)CC/C=C(\C)CCC=C(C)C)=C(C)C1=O [Q10, Coenzyme Q10]
[1]; HASMC cells
  expression of CCL5: significant decrease in the expression of CCL5
[1]; hyperglycemic HASMC cells
  expression of AGT, CEACAM1, INSR, SELL, IL-6, TNF, CCL5: altered expression of genes
[2]
  CEACAM1 RNA transcript: highly upregulated
[3]
  PKM2 expression: dose-dependent decrease in the PKM2 expression
